Holding throughout (conditions): Compound concentration 10 µM
Assay [1] has as its target 5-hydroxytryptamine receptor 1E (Homo sapiens) (UniProt P28566).
Assay [2] has as its target T1, 5-hydroxytryptamine receptor 1A (Homo sapiens) (UniProt P08908).
T1 sequence (whole entry): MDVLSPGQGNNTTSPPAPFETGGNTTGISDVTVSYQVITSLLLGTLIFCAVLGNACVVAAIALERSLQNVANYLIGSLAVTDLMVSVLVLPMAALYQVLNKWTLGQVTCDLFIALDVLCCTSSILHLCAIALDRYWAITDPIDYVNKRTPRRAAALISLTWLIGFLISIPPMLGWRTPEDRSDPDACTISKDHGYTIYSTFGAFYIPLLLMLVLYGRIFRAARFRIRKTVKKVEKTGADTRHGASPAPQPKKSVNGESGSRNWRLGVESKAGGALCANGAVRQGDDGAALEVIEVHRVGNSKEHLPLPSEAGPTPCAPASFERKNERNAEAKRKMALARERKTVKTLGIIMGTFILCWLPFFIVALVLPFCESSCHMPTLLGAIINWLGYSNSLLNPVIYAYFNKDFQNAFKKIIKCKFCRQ

Assay [3] deals with Sigma intracellular receptor 2 (Homo sapiens) (UniProt Q5BJF2).
Sequence of Sigma intracellular receptor 2 (Homo sapiens) (Q5BJF2 whole entry): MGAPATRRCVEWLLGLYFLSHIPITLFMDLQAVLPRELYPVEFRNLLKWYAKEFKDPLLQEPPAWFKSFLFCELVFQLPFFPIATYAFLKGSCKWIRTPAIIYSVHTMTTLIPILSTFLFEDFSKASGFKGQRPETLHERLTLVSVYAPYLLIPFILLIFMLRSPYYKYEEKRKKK
Assay [4] addresses T2, 5-hydroxytryptamine receptor 2C (Homo sapiens) (UniProt P28335).
T2 sequence (whole entry): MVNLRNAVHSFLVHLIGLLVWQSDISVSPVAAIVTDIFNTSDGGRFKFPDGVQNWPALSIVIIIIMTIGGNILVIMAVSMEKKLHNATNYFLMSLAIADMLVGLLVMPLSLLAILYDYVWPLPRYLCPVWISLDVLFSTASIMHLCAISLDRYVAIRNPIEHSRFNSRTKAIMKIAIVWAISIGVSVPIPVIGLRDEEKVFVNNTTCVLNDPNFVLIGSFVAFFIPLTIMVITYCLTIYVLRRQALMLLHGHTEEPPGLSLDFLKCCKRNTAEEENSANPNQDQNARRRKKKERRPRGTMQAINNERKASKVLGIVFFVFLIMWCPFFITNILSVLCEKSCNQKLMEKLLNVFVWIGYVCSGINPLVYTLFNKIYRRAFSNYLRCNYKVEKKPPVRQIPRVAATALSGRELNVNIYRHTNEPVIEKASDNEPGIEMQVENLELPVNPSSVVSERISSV

Assay [5] concerns the target Histamine H4 receptor (Homo sapiens) (UniProt Q9H3N8).
Assay [6] deals with Translocator protein (Homo sapiens) (UniProt P30536).
Sequence of Translocator protein (Homo sapiens) (P30536 whole entry): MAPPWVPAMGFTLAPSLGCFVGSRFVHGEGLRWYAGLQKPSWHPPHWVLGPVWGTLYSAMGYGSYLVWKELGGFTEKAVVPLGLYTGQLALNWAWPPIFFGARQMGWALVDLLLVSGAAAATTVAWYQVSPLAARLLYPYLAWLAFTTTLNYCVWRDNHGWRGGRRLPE
Assay [7] deals with Beta-2 adrenergic receptor (Homo sapiens) (UniProt P07550).
Sequence of Beta-2 adrenergic receptor (Homo sapiens) (P07550 whole entry, looked up): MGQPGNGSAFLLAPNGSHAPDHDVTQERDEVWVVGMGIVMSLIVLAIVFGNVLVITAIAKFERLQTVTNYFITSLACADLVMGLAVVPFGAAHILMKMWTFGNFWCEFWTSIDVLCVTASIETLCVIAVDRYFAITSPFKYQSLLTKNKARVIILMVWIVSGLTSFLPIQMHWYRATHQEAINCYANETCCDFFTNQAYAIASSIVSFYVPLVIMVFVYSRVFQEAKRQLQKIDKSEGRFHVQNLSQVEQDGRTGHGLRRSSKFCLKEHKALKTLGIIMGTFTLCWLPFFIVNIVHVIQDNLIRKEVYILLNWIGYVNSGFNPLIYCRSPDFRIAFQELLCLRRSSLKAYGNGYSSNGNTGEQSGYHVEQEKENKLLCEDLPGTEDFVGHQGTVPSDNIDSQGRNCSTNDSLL
Assay [8] has as its target Kappa-type opioid receptor (Homo sapiens) (UniProt P41145).
The target in assay [9] is D(3) dopamine receptor (Homo sapiens) (UniProt P35462).
Sequence of D(3) dopamine receptor (Homo sapiens) (P35462 whole entry): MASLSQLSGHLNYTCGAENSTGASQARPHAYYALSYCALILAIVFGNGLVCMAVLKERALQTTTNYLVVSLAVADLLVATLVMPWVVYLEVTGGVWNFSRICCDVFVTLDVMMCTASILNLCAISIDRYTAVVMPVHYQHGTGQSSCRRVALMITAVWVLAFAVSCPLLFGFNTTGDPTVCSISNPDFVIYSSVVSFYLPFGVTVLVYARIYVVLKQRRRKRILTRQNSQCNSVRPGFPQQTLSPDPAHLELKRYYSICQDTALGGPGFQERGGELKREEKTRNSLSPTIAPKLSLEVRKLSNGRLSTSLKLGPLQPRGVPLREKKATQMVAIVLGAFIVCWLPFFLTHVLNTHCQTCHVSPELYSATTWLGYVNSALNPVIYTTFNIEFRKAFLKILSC
Assay [10] addresses 5-hydroxytryptamine receptor 2A (Homo sapiens) (UniProt P28223).
The target of assay [11] is T3, D(4) dopamine receptor (Homo sapiens) (UniProt P21917).
T3 sequence (whole entry): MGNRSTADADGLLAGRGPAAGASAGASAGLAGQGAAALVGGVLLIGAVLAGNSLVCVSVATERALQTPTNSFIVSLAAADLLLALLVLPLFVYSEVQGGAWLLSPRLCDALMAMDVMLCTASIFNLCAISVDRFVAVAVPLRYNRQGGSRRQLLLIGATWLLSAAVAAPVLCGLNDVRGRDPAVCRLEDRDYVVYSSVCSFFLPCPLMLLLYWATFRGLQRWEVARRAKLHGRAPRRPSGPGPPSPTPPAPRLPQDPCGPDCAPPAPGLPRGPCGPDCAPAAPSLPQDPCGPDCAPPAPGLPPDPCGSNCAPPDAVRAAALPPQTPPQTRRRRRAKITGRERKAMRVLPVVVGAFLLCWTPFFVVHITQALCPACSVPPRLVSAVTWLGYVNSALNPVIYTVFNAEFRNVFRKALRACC

Assay [12] addresses 5-hydroxytryptamine receptor 5A (Homo sapiens) (UniProt P47898).
For assay [13], the target named is 5-hydroxytryptamine receptor 2B (Homo sapiens) (UniProt P41595).
Sequence of 5-hydroxytryptamine receptor 2B (Homo sapiens) (P41595 whole entry): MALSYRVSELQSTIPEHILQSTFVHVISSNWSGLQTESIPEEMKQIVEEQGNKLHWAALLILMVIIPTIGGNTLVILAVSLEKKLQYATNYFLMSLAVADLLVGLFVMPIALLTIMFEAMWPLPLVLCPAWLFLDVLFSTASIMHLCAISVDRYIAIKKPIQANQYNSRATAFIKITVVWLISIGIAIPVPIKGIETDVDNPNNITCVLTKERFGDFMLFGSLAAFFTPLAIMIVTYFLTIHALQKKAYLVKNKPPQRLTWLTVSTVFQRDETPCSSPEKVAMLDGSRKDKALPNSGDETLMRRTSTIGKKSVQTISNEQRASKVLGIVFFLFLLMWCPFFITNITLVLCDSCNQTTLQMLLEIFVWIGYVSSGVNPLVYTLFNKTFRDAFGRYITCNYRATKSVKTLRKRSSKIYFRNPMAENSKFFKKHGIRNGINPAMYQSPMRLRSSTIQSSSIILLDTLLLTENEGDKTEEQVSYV
Assay [14] has as its target T4, Alpha-2C adrenergic receptor (Homo sapiens) (UniProt P18825).
T4 sequence (whole entry): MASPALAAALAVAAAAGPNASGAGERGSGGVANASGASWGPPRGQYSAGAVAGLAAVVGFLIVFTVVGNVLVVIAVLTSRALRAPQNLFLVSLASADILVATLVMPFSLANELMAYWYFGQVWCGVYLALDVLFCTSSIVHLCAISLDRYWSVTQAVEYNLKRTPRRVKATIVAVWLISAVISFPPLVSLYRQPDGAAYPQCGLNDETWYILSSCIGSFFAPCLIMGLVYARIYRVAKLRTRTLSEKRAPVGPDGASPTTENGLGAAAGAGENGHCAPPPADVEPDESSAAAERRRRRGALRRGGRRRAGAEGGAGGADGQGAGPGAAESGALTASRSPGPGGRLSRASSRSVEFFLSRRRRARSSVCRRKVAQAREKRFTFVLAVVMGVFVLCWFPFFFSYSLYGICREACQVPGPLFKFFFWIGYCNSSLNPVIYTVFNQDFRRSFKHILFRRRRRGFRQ

For assay [15], the target named is T5, 5-hydroxytryptamine receptor 3A (Homo sapiens) (UniProt P46098).
T5 sequence (whole entry): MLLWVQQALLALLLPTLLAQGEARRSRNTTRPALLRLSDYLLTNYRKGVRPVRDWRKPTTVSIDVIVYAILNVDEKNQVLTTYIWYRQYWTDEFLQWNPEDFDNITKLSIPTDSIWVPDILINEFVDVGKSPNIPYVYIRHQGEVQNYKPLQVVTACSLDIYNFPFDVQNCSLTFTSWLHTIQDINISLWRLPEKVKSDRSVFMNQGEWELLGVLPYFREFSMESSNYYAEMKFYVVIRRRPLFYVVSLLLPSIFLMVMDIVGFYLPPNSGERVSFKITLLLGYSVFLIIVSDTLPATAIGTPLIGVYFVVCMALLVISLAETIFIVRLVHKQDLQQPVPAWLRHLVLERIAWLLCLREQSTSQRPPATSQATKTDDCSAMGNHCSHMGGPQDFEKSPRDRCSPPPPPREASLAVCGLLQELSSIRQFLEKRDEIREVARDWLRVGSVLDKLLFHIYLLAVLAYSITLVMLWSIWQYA

The target of assay [16] is Histamine H1 receptor (Homo sapiens) (UniProt P35367).
Sequence of Histamine H1 receptor (Homo sapiens) (P35367 whole entry): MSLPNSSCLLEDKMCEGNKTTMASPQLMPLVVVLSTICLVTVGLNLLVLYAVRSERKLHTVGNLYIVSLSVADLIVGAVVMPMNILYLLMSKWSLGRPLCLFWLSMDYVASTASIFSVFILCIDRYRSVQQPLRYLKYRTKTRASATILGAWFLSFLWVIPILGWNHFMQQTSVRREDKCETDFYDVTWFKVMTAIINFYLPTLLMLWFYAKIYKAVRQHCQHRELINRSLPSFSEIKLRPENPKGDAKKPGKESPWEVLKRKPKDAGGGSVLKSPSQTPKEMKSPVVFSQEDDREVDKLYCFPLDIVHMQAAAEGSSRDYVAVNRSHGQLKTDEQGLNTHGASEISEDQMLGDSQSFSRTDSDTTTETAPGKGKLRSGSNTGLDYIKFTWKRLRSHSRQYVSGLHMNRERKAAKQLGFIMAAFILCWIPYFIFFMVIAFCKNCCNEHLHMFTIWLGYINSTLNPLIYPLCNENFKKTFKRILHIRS

Sequence of Kappa-type opioid receptor (Homo sapiens) (P41145 whole entry): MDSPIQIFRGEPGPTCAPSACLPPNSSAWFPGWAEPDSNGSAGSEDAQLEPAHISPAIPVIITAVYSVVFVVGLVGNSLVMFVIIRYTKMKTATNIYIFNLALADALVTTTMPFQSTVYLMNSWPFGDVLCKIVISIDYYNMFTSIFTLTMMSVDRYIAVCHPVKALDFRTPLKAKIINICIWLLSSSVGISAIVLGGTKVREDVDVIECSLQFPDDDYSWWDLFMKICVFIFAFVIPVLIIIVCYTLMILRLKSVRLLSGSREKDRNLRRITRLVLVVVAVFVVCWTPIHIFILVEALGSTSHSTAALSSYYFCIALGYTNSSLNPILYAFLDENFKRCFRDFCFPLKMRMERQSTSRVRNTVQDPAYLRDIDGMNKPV
Sequence of 5-hydroxytryptamine receptor 1E (Homo sapiens) (P28566 whole entry): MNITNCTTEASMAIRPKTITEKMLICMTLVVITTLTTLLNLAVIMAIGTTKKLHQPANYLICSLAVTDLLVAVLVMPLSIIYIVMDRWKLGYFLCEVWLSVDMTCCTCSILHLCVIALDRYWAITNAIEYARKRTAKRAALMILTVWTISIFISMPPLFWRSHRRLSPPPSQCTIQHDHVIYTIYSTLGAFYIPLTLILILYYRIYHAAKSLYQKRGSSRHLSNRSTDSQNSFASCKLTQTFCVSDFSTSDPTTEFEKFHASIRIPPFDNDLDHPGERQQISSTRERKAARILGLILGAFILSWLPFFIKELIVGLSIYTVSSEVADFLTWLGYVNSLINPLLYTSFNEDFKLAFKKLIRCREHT
Sequence of 5-hydroxytryptamine receptor 2A (Homo sapiens) (P28223 whole entry): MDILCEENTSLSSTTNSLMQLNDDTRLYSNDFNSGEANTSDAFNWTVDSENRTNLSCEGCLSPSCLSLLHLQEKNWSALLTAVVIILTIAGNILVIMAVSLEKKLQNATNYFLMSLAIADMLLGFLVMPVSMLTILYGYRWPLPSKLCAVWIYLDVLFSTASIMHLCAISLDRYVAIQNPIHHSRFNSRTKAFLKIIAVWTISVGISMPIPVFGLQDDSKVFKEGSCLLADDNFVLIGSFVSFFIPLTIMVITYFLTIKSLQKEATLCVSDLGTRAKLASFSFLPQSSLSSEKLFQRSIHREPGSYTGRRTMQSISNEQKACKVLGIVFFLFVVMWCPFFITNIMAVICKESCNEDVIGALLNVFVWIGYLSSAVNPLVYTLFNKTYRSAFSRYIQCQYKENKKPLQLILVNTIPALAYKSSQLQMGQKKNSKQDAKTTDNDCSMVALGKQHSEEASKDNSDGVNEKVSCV
Sequence of Histamine H4 receptor (Homo sapiens) (Q9H3N8 whole entry): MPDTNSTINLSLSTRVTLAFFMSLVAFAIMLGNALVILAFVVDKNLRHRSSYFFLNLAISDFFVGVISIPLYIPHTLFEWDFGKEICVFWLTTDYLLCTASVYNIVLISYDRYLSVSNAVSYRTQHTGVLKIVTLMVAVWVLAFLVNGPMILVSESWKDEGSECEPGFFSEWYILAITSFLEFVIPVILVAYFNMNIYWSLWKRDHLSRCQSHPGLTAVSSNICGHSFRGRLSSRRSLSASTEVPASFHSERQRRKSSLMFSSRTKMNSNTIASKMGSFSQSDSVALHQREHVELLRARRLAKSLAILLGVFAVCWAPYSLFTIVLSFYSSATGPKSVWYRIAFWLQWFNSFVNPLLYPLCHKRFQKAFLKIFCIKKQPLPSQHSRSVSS
Sequence of 5-hydroxytryptamine receptor 5A (Homo sapiens) (P47898 whole entry): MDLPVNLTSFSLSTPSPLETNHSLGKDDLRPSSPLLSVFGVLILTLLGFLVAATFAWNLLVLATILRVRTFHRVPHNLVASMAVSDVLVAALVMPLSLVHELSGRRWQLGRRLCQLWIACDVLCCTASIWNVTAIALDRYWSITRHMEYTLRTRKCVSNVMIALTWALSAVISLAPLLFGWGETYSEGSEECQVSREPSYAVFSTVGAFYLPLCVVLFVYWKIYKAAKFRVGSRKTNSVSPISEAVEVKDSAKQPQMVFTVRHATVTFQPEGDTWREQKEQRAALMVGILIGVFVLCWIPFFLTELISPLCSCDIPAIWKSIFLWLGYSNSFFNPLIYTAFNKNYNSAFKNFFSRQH

Regarding `N#Cc1c(O)nc(SCc2cccc(F)c2F)nc1C1CC1`, the inhibition – broadly, the change of the read-out against control, counted positive when it falls – is -5.94% in [1]; -4.01% in [2]; 8.9% in [3]; -5.1% in assay [4]; 4.02% in [5]; 40.4% in [6]. Further, the inhibition in assay [7] is 5.94%; in assay [8], 3.53%; in assay [9], 2.3%; in assay [10], -3.85%; in assay [11], -4.74%; in assay [12], 8.42%. Further, the inhibition in assay [13] is 9.1%; in assay [14] it was 5.91%.

In the case of `C[C@]1(C(=O)N(CCCC(=O)O)Cc2cccc(Cl)c2)CCN1C(=O)c1csc2ccccc12`, the inhibition in [1] was -8.85%; in assay [15], -7.18%; in assay [3] it was -7.28%; in assay [5], 12.9%; in assay [6] it was 5.72%; in [8], -5.78%. Further, the inhibition was 29% in assay [9]; 5.34% in assay [10]; 4.3% in assay [11]; -1.31% in assay [12]; -7.25% in [13]; 15.4% in assay [16].

Take `NCCc1c[nH]c2ccc(C(N)=O)cc12`: the inhibition in [1] is 65.6%; in assay [2], 91.4%; in [3] it was 63.4%; in assay [4] it was 71.4%; in assay [5] it was -3.92%; in [7], 4.33%. Moreover, the inhibition in [8] was 2.24%; in assay [9], 7.17%; in [10], -8.47%; in assay [11], 8.02%; in assay [12] it was 99.4%; in assay [13], 78.8%. The inhibition in assay [16] was -4.09%; in assay [14], 15.4%.

Take `NCCc1cn(S(=O)(=O)c2c(Cl)nc3sccn23)c2ccccc12`: the inhibition in assay [1] is 23.3%; in [15], 79.2%; in assay [2], 16.6%; in [3], 82.9%; in assay [5], 11.2%; in assay [6], -4.24%. Besides, the inhibition is 39.8% in assay [7]; 32.8% in assay [8]; 32% in [9]; 94.2% in [10]; 38.7% in [11]; 28.4% in assay [12]. Besides, the inhibition was 98.3% in [13], 52.1% in assay [16] and 42.5% in [14].

For `O=C(O)C1CN(Cc2ccc(OCc3ccc(Cl)c(Cl)c3)cc2)C1`, the inhibition was -4% in [1]; -8.5% in assay [15]; 13.2% in assay [2]; -3.72% in [5]; 3.35% in [6]; -7.92% in [8]. Further, the inhibition in [9] is 39.5%; in assay [10], 55.1%; in [11], -0.79%; in assay [12] it was 23.4%; in assay [13], 10.2%; in assay [16], 86%. Moreover, the inhibition in assay [14] is 10%.

With `O=C(O)Cn1c(C(=O)Nc2nc(-c3ccccc3Cl)cs2)cc2ccccc21`, the inhibition is 3.11% in assay [1]; -8.88% in [2]; 36.6% in [3]; 12.4% in assay [4]; 13.6% in assay [5]; 20.4% in assay [6]. In addition, the inhibition in assay [7] is -7.21%; in assay [8] it was 2.51%; in assay [9] it was 7.11%; in assay [11], -9.74%; in assay [12], 18.6%; in [13], 0.94%. In addition, the inhibition in assay [16] was -9.22%; in assay [14], 0.91%.

For `CC1CCN(CC[C@H]2CCCN2S(=O)(=O)c2cccc(O)c2)CC1`, the inhibition is 7.28% in assay [1]; -9.3% in assay [15]; 0.65% in assay [2]; 98.2% in assay [3]; 10.6% in assay [5]; -7.14% in assay [6]. For the same molecule, the inhibition in assay [7] is -9.8%; in assay [8], 50.4%; in assay [9], 61.6%; in assay [10], 28.8%; in assay [11], 22.1%; in [12], 91.7%. The inhibition in assay [13] is 15.4%; in assay [16], 44.4%; in assay [14], 51.5%.

`c1nc(CC2CCNCC2)c[nH]1`: the inhibition was 9.31% in assay [1]; 6.29% in assay [15]; -10% in assay [2]; 27.7% in assay [3]; 105% in [5]; 5.09% in [7]. The inhibition was -4.62% in assay [9]; 20.8% in assay [10]; 14.9% in assay [11]; -4.49% in assay [12]; 30.4% in assay [13]; 26.1% in assay [16]. Also, the inhibition in assay [14] was -1.91%.

For `Cc1nc(-c2ccc(C(F)(F)F)cc2)sc1COc1ccc([C@H](CC(=O)O)c2ccon2)cc1`, the inhibition is 39.7% in [1]; 26.5% in [3]; -6.07% in [4]; -1.65% in assay [5]; 11.6% in [6]; 7.87% in assay [7]. For the same molecule, the inhibition in [8] is 6.61%; in assay [9], 42.1%; in assay [10], 48.3%; in assay [12], 26.8%; in assay [13], 0.53%; in assay [14] it was 2.28%.
